Reference: paper PMC12750888, “Design, synthesis, and anti-Toxoplasma gondii evaluation of β-carboline derivatives” (Parasites & Vectors, 2025)

How the values were obtained:
Vero cells = test: Cell viability assay (CCK-8) on Vero cells; assay type: cell-based, African green monkey; conditions: 24 h; for Cytotoxicity: CCK-8, tested up to 30 µM; for inhibition at 30 µM: Chlorocebus sabaeus, CCK-8, read-out: Inhibition rate of Vero cell at 30 μM
Method: African green monkey kidney (Vero) cells were cultured in Dulbecco’s modified Eagle’s medium (DMEM) supplemented with 100 U/mL penicillin, 100 μg/mL streptomycin, 1% nonessential amino acids (NEAAs), 1% GlutaMAX and 10% fetal bovine serum (FBS) at 37 °C in an atmosphere of 5% CO2. […] DMEM without a drug was used as a control. After 24 h of treatment, Cell Counting Kit-8 (CCK-8, CA1210, Solarbio) was used to determine cell viability at 450 nm via a Multiskan GO instrument.

T. gondii RH tachyzoites = test: Screening for anti-T. gondii activity in vitro (plaque and qPCR assays); assay type: cell-based, Toxoplasma gondii; conditions: for inhibition of growth at 30 µM: Toxoplasma gondii, Vero, 24 h, RH tachyzoites in Vero cells, plaque and qPCR assays
Method: The anti-T. gondii activity of compounds NBZ001‒037 was examined via RT-PCR. Confluent Vero cells in 6-well plates were infected with 2 × 10^5 T. gondii RH tachyzoites per well, incubated for 6 h, and then washed twice with PBS to remove extracellular tachyzoites. The cell monolayers were incubated with DMEM (1% FBS) containing various concentrations of NBZ001‒037 for 24 h. Total genomic DNA from each sample was isolated with the DNAiso reagent (Takara), and the levels of the 529-bp repeat element of T. gondii were measured by qPCR. A plaque assay was used to evaluate the activity of the compounds. The detailed experimental procedures were described in previous studies.

[1] = test system: T. gondii RH strain tachyzoites; test: In vitro anti-invasion assay (qPCR; RH-GFP fluorescence microscopy); assay type: cell-based, Toxoplasma gondii; conditions: 0.4 μM, RH strain, qPCR
Method: Vero cells were seeded onto 6-well plates and cultured with DMEM supplemented with 10% FBS to obtain cell monolayers. The medium was replaced with fresh DMEM (1% FBS) containing NBZ023 or NBZ035 (0.24–30 μM), pyrimethamine (0.4 μM) or no drugs (as a control), and tachyzoites (2 × 10^6 per well) were then inoculated into the confluent Vero cell monolayers. At 2 h after infection, the cell monolayers were washed twice with PBS to remove extracellular tachyzoites and then total genomic DNA from the cell samples was isolated with the DNAiso reagent (Takara). The anti-invasion capabilities of NBZ023 and NBZ035 were determined by qPCR. The T. gondii RH strain with green fluorescence was seeded as described above. After infection, the cells were incubated for 36 h to fully observe the infection status of the parasites via fluorescence microscopy.

Row | SMILES | Cytotoxicity (Vero cells) | inhibition at 30 µM (Vero cells) | inhibition of growth at 30 µM (T. gondii RH tachyzoites) | improved efficacy over NBZ022 (T. gondii RH tachyzoites; 30 μM screening, ortho-Cl versus NBZ022) | anti-invasion rate [1]
1 | NC(=O)c1ccc2[nH]c3c(C(=O)c4ccccc4Br)nccc3c2c1 [NBZ013] | > 30.00 µM | 11.2% | 34.5% |  | 
2 | CC(=O)OC[C@H]1O[C@@H](OC(C)=O)[C@H](NC(=O)c2ccc3[nH]c4c(C(=O)c5ccccc5Br)nccc4c3c2)[C@@H](OC(C)=O)[C@@H]1OC(C)=O [NBZ019] | > 30.00 µM | 9.56% | 35.9% |  | 
3 | Cc1ccc2[nH]c3c(C(=O)c4ccc(Br)cc4)nccc3c2c1 [NBZ007] | > 30.00 µM | 13.5% | 31.2% |  | 
4 | O=C(Nc1ccccc1)c1ccc2[nH]c3c(C(=O)c4ccccc4Cl)nccc3c2c1 [NBZ021] | > 30.00 µM | 11.4% | > 50% | 66.21% | 
5 | CCCCNC(=O)c1ccc2[nH]c3c(C(=O)c4ccccc4Br)nccc3c2c1 [NBZ014] | > 30.00 µM | 19.7% | 2.09% |  | 
6 | COc1ccccc1NC(=O)c1ccc2[nH]c3c(C(=O)c4ccccc4Cl)nccc3c2c1 [NBZ027, (2-Chlorobenzoyl)-N-(2-methoxyphenyl)-9H-pyrido[3,4-b]indole-6-carboxamide] | > 30.00 µM | 27.9% |  |  | 
7 | CN(C)c1ccc(NC(=O)c2ccc3[nH]c4c(C(=O)c5ccccc5Cl)nccc4c3c2)cc1 [NBZ032] | > 30.00 µM | 16% | 73% |  | 
8 | Cc1ccc2[nH]c3c(C(=O)c4ccccc4Cl)nccc3c2c1 [NBZ004] | > 30.00 µM | 5.35% | 43.8% |  | 
9 | O=C(c1ccccc1Br)c1nccc2c1[nH]c1ccc(Br)cc12 [NBZ003] | > 30.00 µM | 21.8% | 40.8% |  | 
10 | Cc1ccc2[nH]c3c(C(=O)c4ccccc4Br)nccc3c2c1 [NBZ005] | > 30.00 µM | 43.9% | 33.9% |  | 
11 | COc1ccc(NC(=O)c2ccc3[nH]c4c(C(=O)c5ccccc5Br)nccc4c3c2)cc1 [NBZ029] | > 30.00 µM | 27.9% | 30.3% |  | 
12 | Cc1ccc(NC(=O)c2ccc3[nH]c4c(C(=O)c5ccccc5Cl)nccc4c3c2)cc1 [NBZ025] | > 30.00 µM | 3.96% | 32.6% |  | 
13 | COc1ccc(C(=O)c2nccc3c2[nH]c2ccc(C)cc23)cc1 [NBZ008] | > 30.00 µM | 13.1% | 17.3% |  | 
14 | COc1ccc(C(=O)c2nccc3c2[nH]c2ccc(C(=O)O)cc23)cc1 [NBZ012] | > 30.00 µM | 7.66% | 21.9% |  | 
15 | O=C(NC1CCCCC1)c1ccc2[nH]c3c(C(=O)c4ccccc4Br)nccc3c2c1 [NBZ015] | > 30.00 µM | 3.68% | 37.1% |  | 
16 | O=C(O)c1ccc2[nH]c3c(C(=O)c4ccc(Br)cc4)nccc3c2c1 [NBZ011] | > 30.00 µM | 3.88% | > 50% |  | 
17 | O=C(Nc1cccc2ccccc12)c1ccc2[nH]c3c4[n+](ccc3c2c1)-c1ccccc1C4=O [NBZ034] |  | 58.2% |  |  | 
18 | O=C(O)c1ccc2[nH]c3c(C(=O)c4ccccc4Cl)nccc3c2c1 [NBZ009] | > 30.00 µM | 15% | 32.1% |  | 

Row | SMILES | Cytotoxicity (Vero cells) | inhibition at 30 µM (Vero cells) | inhibition of growth at 30 µM (T. gondii RH tachyzoites) | improved efficacy over NBZ022 (T. gondii RH tachyzoites; 30 μM screening, ortho-Cl versus NBZ022) | anti-invasion rate [1]
19 | COc1ccc(NC(=O)c2ccc3[nH]c4c(C(=O)c5ccccc5Cl)nccc4c3c2)cc1 [NBZ028] | > 30.00 µM | 19.3% |  |  | 
20 | O=C(Nc1cccc2ccccc12)c1ccc2[nH]c3c(C(=O)c4ccccc4Br)nccc3c2c1 [NBZ020] | > 30.00 µM | 8.15% | 7.22% |  | 
21 | Cc1ccccc1NC(=O)c1ccc2[nH]c3c(C(=O)c4ccccc4Br)nccc3c2c1 [NBZ024] | > 30.00 µM | 24.4% | 3.45% |  | 
22 | Cc1ccc2[nH]c3c(C(=O)c4cccc(Br)c4)nccc3c2c1 [NBZ006] | > 30.00 µM | 13.1% | 33.3% |  | 
23 | O=C(c1ccccc1Br)c1nccc2c1[nH]c1ccccc12 [NBZ002] | > 30.00 µM | 27.2% | 42.2% |  | 
24 | O=C(c1ccccc1Cl)c1nccc2c1[nH]c1ccc(C(=O)N3CCOCC3)cc12 [NBZ016] | > 30.00 µM | 10.5% | 37.4% |  | 
25 | Cc1ccc(NC(=O)c2ccc3[nH]c4c5[n+](ccc4c3c2)-c2ccccc2C5=O)cc1.[Cl-] [NBZ037, 13-oxo-9-(p-tolylcarbamoyl)-12,13-dihydropyrido[1,2-a:3,4-b’]diindol-5-ium chloride] | > 30.00 µM | 29.7% |  |  | 
26 | CN(C)c1cccc(NC(=O)c2ccc3[nH]c4c(C(=O)c5ccccc5Br)nccc4c3c2)c1 [NBZ031] | > 30.00 µM | 6.47% | 72.7% |  | 
27 | O=C(O)c1ccc2[nH]c3c(C(=O)c4ccccc4Br)nccc3c2c1 [NBZ010] | > 30.00 µM | 16.6% | 45.2% |  | 
28 | Cc1ccccc1NC(=O)c1ccc2[nH]c3c4[n+](ccc3c2c1)-c1ccccc1C4=O [NBZ036] | > 30.00 µM | 9.02% | 42.9% |  | 
29 | CN(C)c1cccc(NC(=O)c2ccc3[nH]c4c(C(=O)c5ccccc5Cl)nccc4c3c2)c1 [NBZ030] | > 30.00 µM | 12.8% | 69.2% |  | 
30 | CN(C)c1ccc(NC(=O)c2ccc3[nH]c4c(C(=O)c5ccccc5Br)nccc4c3c2)cc1 [NBZ033] | > 30.00 µM | 11.2% | 14.3% |  | 
31 | O=C(c1ccccc1Cl)c1nccc2c1[nH]c1ccccc12 [NBZ001] | > 30.00 µM | 24.2% | 31.3% |  | 
32 | O=C(NCc1ccco1)c1ccc2[nH]c3c(C(=O)c4ccccc4Br)nccc3c2c1 [NBZ017] | > 30.00 µM | 10.8% | 43.4% |  | 
33 | Cc1ccc(NC(=O)c2ccc3[nH]c4c(C(=O)c5ccccc5Br)nccc4c3c2)cc1 [NBZ026] | > 30.00 µM | 23.6% | 21.1% |  | 
34 | CCc1nc(N)nc(N)c1-c1ccc(Cl)cc1 [pyrimethamine, reference compound] |  |  |  |  | 26.77%
35 | O=C(Nc1ccccc1)c1ccc2[nH]c3c(C(=O)c4ccccc4Br)nccc3c2c1 [NBZ022] | > 30.00 µM | 46.8% | 17.4% |  | 
